Where two headings read alike, the source gives them in different places.
How the values were obtained:
NAMPT = biological target: T1, NAMPT (Homo sapiens, UniProt P43490); test: Biochemical inhibition assay: NAMPT enzymatic reaction, NMN quantified by mass spectrometry; conditions: read-out: Biochem IC50
T1 construct: His tag; host or cells: E. coli
How it was run: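 Inhibition of E. coli-expressed His-tagged human NAMPT, measured as NMN formation by mass spectrometry after a 30 min room-temperature reaction containing 1 μM NAM, 100 μM PRPP and 2.5 mM ATP.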

A2780 cells = test: In-vitro cell proliferation assay (SRB), A2780 cells; assay type: cell-based; conditions: Homo sapiens, A2780, 72 h, A2780 cells, 72 hours, read-out: A2780 IC50
How it was run: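 SRB read-out: 6% TCA fix 1 h at 4° C., stain, Tris solubilize, A570. Media-only background subtracted; % inhibition from two compound concentrations.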

T1 sequence (P43490 whole entry): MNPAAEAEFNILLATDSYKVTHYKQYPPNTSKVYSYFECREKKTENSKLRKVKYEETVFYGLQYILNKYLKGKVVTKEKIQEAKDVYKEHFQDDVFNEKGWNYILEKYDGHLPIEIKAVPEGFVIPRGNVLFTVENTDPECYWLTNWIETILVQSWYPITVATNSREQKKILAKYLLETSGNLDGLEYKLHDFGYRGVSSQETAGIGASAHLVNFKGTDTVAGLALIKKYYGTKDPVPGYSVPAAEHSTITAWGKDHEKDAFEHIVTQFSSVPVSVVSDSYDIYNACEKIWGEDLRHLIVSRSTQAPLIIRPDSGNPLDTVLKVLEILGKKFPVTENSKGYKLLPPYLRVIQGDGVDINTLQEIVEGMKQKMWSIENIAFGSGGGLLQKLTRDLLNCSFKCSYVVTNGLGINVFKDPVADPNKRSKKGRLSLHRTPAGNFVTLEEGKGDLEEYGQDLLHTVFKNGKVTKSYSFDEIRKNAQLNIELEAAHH

Structure (SMILES)	IC50 (NAMPT; NAMPT enzymatic reaction)	IC50 (A2780 cells; SRB)	IC50 (A2780 cells; SRB assay)	IC50 (NAMPT; NAMPT enzymatic assay)
COc1cc(S(=O)(=O)c2ccc(CNC(=O)c3cnc4[nH]ncc4c3)cc2)ccc1F [N-({4-[(4-fluoro-3-methoxybenzene)sulfonyl]phenyl}methyl)-1H-pyrazolo[3,4-b]pyridine-5-carboxamide]	0.0239 µM	0.0115 µM	–	–
Cn1ncc2cc(C(=O)NCc3ccc(S(=O)(=O)c4ccccc4)cc3)cnc21 [N-{[4-(benzenesulfonyl)phenyl]methyl}-1-methyl-1H-pyrazolo[3,4-b]pyridine-5-carboxamide]	1.73 µM	–	> 30 µM	–
O=C(NCc1ccc(S(=O)(=O)N2CCCCC2)cc1)c1ccc2nc[nH]c2c1 [N-{[4-(piperidine-1-sulfonyl)phenyl]methyl}-1H-1,3-benzodiazole-5-carboxamide]	0.021 µM	–	0.01 µM	–
CCOc1cccc(S(=O)(=O)c2ccc(CNC(=O)c3ccc4nccn4c3)cc2)c1	0.005 µM	0.0031 µM	–	–
CC(C)(C)c1cccc(S(=O)(=O)c2ccc(CNC(=O)c3cc4ccncc4o3)cc2)c1	0.0093 µM	0.007 µM	–	–
CCOc1ccccc1S(=O)(=O)c1ccc(CNC(=O)c2cnc3[nH]ncc3c2)cc1	0.0493 µM	0.0269 µM	–	–
COc1cc(C)cc(S(=O)(=O)c2ccc(CNC(=O)c3cnc4nccn4c3)cc2)c1	0.0016 µM	0.0013 µM	–	–
COc1cccc(S(=O)(=O)c2ccc(CNC(=O)c3ccc4nccn4c3)cc2)c1F [N-({4-[(2-fluoro-3-methoxybenzene)sulfonyl]phenyl}methyl)imidazo[1,2-a]pyridine-6-carboxamide]	0.033 µM	0.0135 µM	–	–
COc1cccc(S(=O)(=O)c2ccc(CNC(=O)c3ccc4nccn4c3)cc2)c1OC [N-({4-[(2,3-dimethoxybenzene)sulfonyl]phenyl}methyl)imidazo[1,2-a]pyridine-6-carboxamide]	0.0687 µM	0.0249 µM	–	–
O=C(NCC1CCN(S(=O)(=O)c2ccccc2)CC1)c1cc2cnccc2[nH]1 [N-{[1-(benzenesulfonyl)piperidin-4-yl]methyl}-1H-pyrrolo[3,2-c]pyridine-2-carboxamide]	0.015 µM	–	0.009 µM	–
O=C(NCc1ccc(S(=O)(=O)c2ccccc2)cc1)c1nc2cnccc2[nH]1 [N-{[4-(benzenesulfonyl)phenyl]methyl}-1H-imidazo[4,5-c]pyridine-2-carboxamide]	7.06 µM	–	5.37 µM	–
N#Cc1cccc(S(=O)(=O)c2ccc(CNC(=O)c3cc4cnccc4[nH]3)cc2)c1	0.0121 µM	0.0113 µM	–	–
Cc1ccc(Cl)c(S(=O)(=O)c2ccc(CNC(=O)c3cnc4nccn4c3)cc2)c1	0.0057 µM	0.0225 µM	–	–
O=C(NCc1ccc(S(=O)(=O)c2cccc(Cl)c2F)cc1)c1cc2ccncc2o1	0.0109 µM	0.0128 µM	–	–
CC(C)c1cccc(S(=O)(=O)c2ccc(CNC(=O)c3cnc4[nH]ncc4c3)cc2)c1	–	0.0063 µM	–	0.0139 µM
O=C(NCc1ccc(S(=O)(=O)c2cc(F)cc(Cl)c2)cc1)c1cnc2nccn2c1	0.0024 µM	0.0029 µM	–	–
COc1ccc(F)c(S(=O)(=O)c2ccc(CNC(=O)c3cnc4nccn4c3)cc2)c1	0.0104 µM	0.0629 µM	–	–
O=C(NCc1ccc(S(=O)(=O)N2CCCCC2)cc1)c1cccnc1 [N-{[4-(piperidine-1-sulfonyl)phenyl]methyl}pyridine-3-carboxamide]	0.039 µM	–	0.64 µM	–

Structure (SMILES)	IC50 (NAMPT; NAMPT enzymatic reaction)	IC50 (A2780 cells; SRB)	IC50 (A2780 cells; SRB assay)	IC50 (NAMPT; NAMPT enzymatic assay)
CN(C)Cc1cccc(S(=O)(=O)c2ccc(CNC(=O)c3cc4ccncc4o3)cc2)c1	–	0.0062 µM	–	0.0047 µM
O=C(NCc1ccc(S(=O)(=O)c2cc(F)cc(C(F)(F)F)c2)cc1)c1cc2ccncc2s1 [N-[(4-{[3-fluoro-5-(trifluoromethyl)benzene]sulfonyl}phenyl)methyl]thieno[2,3-c]pyridine-2-carboxamide]	–	0.0031 µM	–	0.0102 µM
O=C(NCc1ccc(S(=O)(=O)c2ccccc2)cc1)c1nc2ccncc2s1 [N-{[4-(benzenesulfonyl)phenyl]methyl}-[1,3]thiazolo[5,4-c]pyridine-2-carboxamide]	–	> 10 µM	–	0.22 µM
Cc1ccc(S(=O)(=O)c2ccc(CNC(=O)c3cnc4[nH]ncc4c3)cc2)c(C)c1 [N-({4-[(2,4-dimethylbenzene)sulfonyl]phenyl}methyl)-1H-pyrazolo[3,4-b]pyridine-5-carboxamide]	0.0612 µM	0.0716 µM	–	–
O=C(NCc1ccc(S(=O)(=O)c2cccc(Cl)c2)cc1)c1cnc2nccn2c1	0.0013 µM	0.0012 µM	–	–
Cn1ncc2cc(S(=O)(=O)c3ccc(CNC(=O)c4cc5ccncc5s4)cc3)ccc21 [N-{[4-(1-methyl-1H-indazole-5-sulfonyl)phenyl]methyl}thieno[2,3-c]pyridine-2-carboxamide]	–	0.0016 µM	–	0.0015 µM
O=C(NCc1ccc(S(=O)(=O)c2cc(F)cc(N3CCOCC3)c2)cc1)c1ccc2nccn2c1	–	0.0006 µM	–	0.003 µM
O=C(NCc1ccc(S(=O)(=O)c2cccc(N3CCCCC3)c2)cc1)c1cc2cc(O)ccc2[nH]1	0.1 to 1 µM	1 to 10 µM	–	–
COc1ccc(OC)c(S(=O)(=O)c2ccc(CNC(=O)c3cnc4[nH]ncc4c3)cc2)c1OC [N-({4-[(2,3,6-trimethoxybenzene)sulfonyl]phenyl}methyl)-1H-pyrazolo[3,4-b]pyridine-5-carboxamide]	0.0797 µM	0.0663 µM	–	–
O=C(NCc1ccc(S(=O)(=O)N2CCCCC2)cc1)c1ccn2ccnc2c1 [N-{[4-(piperidine-1-sulfonyl)phenyl]methyl}imidazo[1,2-a]pyridine-7-carboxamide]	> 0.1 µM	–	> 0.5 µM	–
O=C(NCc1ccc(S(=O)(=O)c2cncc3ccccc23)cc1)c1ccc2nccn2c1 [N-{[4-(isoquinoline-4-sulfonyl)phenyl]methyl}imidazo[1,2-a]pyridine-6-carboxamide]	–	0.0041 µM	–	0.0224 µM
O=C(NCc1ccc(S(=O)(=O)c2ccc(F)c(C(F)(F)F)c2)cc1)c1cc2ccncc2o1	–	0.0072 µM	–	0.0082 µM
Cn1ncc2cccc(S(=O)(=O)c3ccc(CNC(=O)c4ccc5nccn5c4)cc3)c21 [N-{[4-(1-methyl-1H-indazole-7-sulfonyl)phenyl]methyl}imidazo[1,2-a]pyridine-6-carboxamide]	–	0.0275 µM	–	0.0287 µM
Cc1cncc(S(=O)(=O)c2ccc(CNC(=O)c3cnc4nccn4c3)cc2)n1 [N-{[4-(6-methylpyrazine-2-sulfonyl)phenyl]methyl}imidazo[1,2-a]pyrimidine-6-carboxamide]	–	0.0525 µM	–	0.001 µM
COc1cc(S(=O)(=O)c2ccc(CNC(=O)c3cc4ccncc4o3)cc2)ccc1Cl [N-({4-[(4-chloro-3-methoxybenzene)sulfonyl]phenyl}methyl)furo[2,3-c]pyridine-2-carboxamide]	0.0059 µM	0.006 µM	–	–
COc1cc(S(=O)(=O)c2ccc(CNC(=O)c3cnc4[nH]ncc4c3)cc2)ccc1C [N-({4-[(3-methoxy-4-methylbenzene)sulfonyl]phenyl}methyl)-1H-pyrazolo[3,4-b]pyridine-5-carboxamide]	0.0036 µM	0.0034 µM	–	–
O=C(NCc1ccc(S(=O)(=O)c2ccccc2)cc1)N1CCc2[nH]cnc2C1 [N-{[4-(benzenesulfonyl)phenyl]methyl}-1H,4H,5H,6H,7H-imidazo[4,5-c]pyridine-5-carboxamide]	> 2 µM	–	> 2 µM	–
O=C(NCc1ccc(S(=O)(=O)c2cc(OC(F)(F)F)ccc2Cl)cc1)c1cnc2nccn2c1	–	0.0125 µM	–	0.008 µM

Reference: US12336981B2, “Compounds and compositions for the inhibition of NAMPT” (Valo Health, Inc., priority 2010, dated 2025)
